Measurements taken from US8158794B2, “Hydroxyalkyl substituted imidazoquinoline compounds and methods” (3M Innovative Properties Company, priority 2005, dated 2012).
Counter-ions that a name gives are not always drawn. Like-named read-outs stand apart in the source and are kept apart here. One block for each compound: values may come before it.

Legend:
[1] = system: tumor necrosis factor (α) (TNF-α); assay: Cytokine induction in human cells: TNF-α secreted by PBMC (ORIGEN M-Series immunoassay); format: cell-based; conditions: median if more than one experiment; for minimal effective concentration: lowest tested concentration inducing response over 40 pg/mL, read-out: Minimum Effective Concentration (μM) TNF; for Maximal Response (pg/mL) TNF: tested 30-0.014 μM, background-subtracted, reference-adjusted
Text: (§1) An in vitro human blood cell system is used to assess cytokine induction. Activity is based on the measurement of interferon (α) and tumor necrosis factor (α) (IFN-α and TNF-α, respectively) secreted into culture media as described by Testerman et. al. in “Cytokine Induction by the Immunomodulators Imiquimod and S-27609”, Journal of Leukocyte Biology, 58, 365-372 (September, 1995).
(§2) Whole blood from healthy human donors is collected by venipuncture into vacutainer tubes or syringes containing EDTA. Peripheral blood mononuclear cells (PBMC) are separated from whole blood by density gradient centrifugation using HISTOPAQUE-1077 (Sigma, St. Louis, Mo.) or Ficoll-Paque Plus (Amersham Biosciences Piscataway, N.J.). Blood is diluted 1:1 with Dulbecco's Phosphate Buffered Saline (DPBS) or Hank's Balanced Salts Solution (HBSS). Alternately, whole blood is placed in Accuspin (Sigma) or LeucoSep (Greiner Bio-One, Inc., Longwood, Fla.) centrifuge frit tubes containing density gradient medium. The PBMC layer is collected and washed twice with DPBS or HBSS and re-suspended at 4×10^6 cells/mL in RPMI complete. The PBMC suspension is added to 96 well flat bottom sterile tissue culture plates containing an equal volume of RPMI complete media containing test compound.
(§3) The compounds are solubilized in dimethyl sulfoxide (DMSO). The DMSO concentration should not exceed a final concentration of 1% for addition to the culture wells. The compounds are generally tested at concentrations ranging from 30-0.014 μM. Controls include cell samples with media only, cell samples with DMSO only (no compound), and cell samples with reference compound.
(§4) The solution of test compound is added at 60 μM to the first well containing RPMI complete and serial 3 fold dilutions are made in the wells. The PBMC suspension is then added to the wells in an equal volume, bringing the test compound concentrations to the desired range (usually 30-0.014 μM). The final concentration of PBMC suspension is 2×10^6 cells/mL. The plates are covered with sterile plastic lids, mixed gently and then incubated for 18 to 24 hours at 37° C. in a 5% carbon dioxide atmosphere.
(§5) Following incubation the plates are centrifuged for 10 minutes at 1000 rpm (approximately 200×g) at 4° C. The cell-free culture supernatant is removed and transferred to sterile polypropylene tubes. Samples are maintained at −30 to −70° C. until analysis. The samples are analyzed for IFN-α by ELISA and for TNF-α by IGEN/BioVeris Assay.
The TNF-α concentration is determined by ORIGEN M-Series Immunoassay and read on an IGEN M-8 analyzer from BioVeris Corporation, formerly known as IGEN International, Gaithersburg, Md. The immunoassay uses a human TNF-α capture and detection antibody pair (Catalog Numbers AHC3419 and AHC3712) from Biosource International, Camarillo, Calif. Results are expressed in pg/mL.
(§6) In total, the data output of the assay consists of concentration values of TNF-α and IFN-α(y-axis) as a function of compound concentration (x-axis).
Analysis of the data has two steps. First, the greater of the mean DMSO (DMSO control wells) or the experimental background (usually 20 pg/mL for IFN-α and 40 pg/mL for TNF-α) is subtracted from each reading. If any negative values result from background subtraction, the reading is reported as “*”, and is noted as not reliably detectable. In subsequent calculations and statistics, “*”, is treated as a zero. Second, all background subtracted values are multiplied by a single adjustment ratio to decrease experiment to experiment variability. The adjustment ratio is the area of the reference compound in the new experiment divided by the expected area of the reference compound based on the past 61 experiments (unadjusted readings). […]

[2] = system: interferon (α) (IFN-α); assay: Cytokine induction in human cells: IFN-α secreted by PBMC (ELISA); format: cell-based; conditions: median if more than one experiment; for minimal effective concentration: lowest tested concentration inducing response over 20 pg/mL, read-out: Minimum Effective Concentration (μM) IFN; for Maximal Response (pg/mL) IFN: tested 30-0.014 μM, background-subtracted, reference-adjusted
Text: as §1, §2, §3, §4, §5
IFN-α concentration is determined with a human multi-subtype colorimetric sandwich ELISA (Catalog Number 41105) from PBL Biomedical Laboratories, Piscataway, N.J. Results are expressed in pg/mL.
as §6
Analysis of the data has two steps. First, the greater of the mean DMSO (DMSO control wells) or the experimental background (usually 20 pg/mL for IFN-α and 40 pg/mL for TNF-α) is subtracted from each reading. If any negative values result from background subtraction, the reading is reported as “*”, and is noted as not reliably detectable. In subsequent calculations and statistics, “*”, is treated as a zero. Second, all background subtracted values are multiplied by a single adjustment ratio to decrease experiment to experiment variability. The adjustment ratio is the area of the reference compound in the new experiment divided by the expected area of the reference compound based on the past 61 experiments (unadjusted readings). […] The reference compound used is 2-[4-amino-2-ethoxymethyl-6,7,8,9-tetrahydro-α,α-dimethyl-1H-imidazo[4,5-c]quinolin-1-yl]ethanol hydrate (U.S. Pat. No. 5,352,784; Example 91) and the expected area is the sum of the median dose values from the past 61 experiments.
The minimum effective concentration is calculated based on the background-subtracted, reference-adjusted results for a given experiment and compound. […]

Compound: CC(C)(O)Cn1c(CO)nc2c(N)nc3cc(-c4cncc(CO)c4)ccc3c21 (hydrate or solvate) [Example 33]
- melting point: 180 to 182 °C

Compound: CC(C)C(=O)N1CCC(Cn2c(CO)nc3c(N)nc4cc(-c5cccnc5)ccc4c32)CC1 (hydrate or solvate) [Example 35]
- melting point: 154 to 157 °C

Compound: CC(C)(O)Cn1c(CO)nc2c(N)nc3cc(-c4ccc(F)nc4)ccc3c21 (hydrate or solvate) [Example 37]
- melting point: 111 to 114 °C

Compound: CCc1nc2c(N)nc3cc(-c4cccnc4)ccc3c2n1CC(C)(C)O [Analog 1, 1-(4-amino-2-ethyl-7-pyridin-3-yl-1H-imidazo[4,5-c]quinolin-1-yl)-2-methylpropan-2-ol, reference compound]
- minimal effective concentration ([1]; 18 to 24 hours): 0.37 µM
- minimal effective concentration ([1]; Table 3, 18 to 24 hours): 0.37 µM
- minimal effective concentration ([2]; 18 to 24 hours): 0.12 µM
- minimal effective concentration ([2]; Table 3, 18 to 24 hours): 0.12 µM

Compound: CCCc1nc2c(N)nc3cc(-c4cccnc4)ccc3c2n1CC(C)(C)O [Analog 2, 1-(4-amino-2-propyl-7-pyridin-3-yl-1H-imidazo[4,5-c]quinolin-1-yl)-2-methylpropan-2-ol, reference compound]
- minimal effective concentration ([1]; 18 to 24 hours): 0.37 µM
- minimal effective concentration ([1]; Table 3, 18 to 24 hours): 0.37 µM
- minimal effective concentration ([2]; 18 to 24 hours): 0.04 µM
- minimal effective concentration ([2]; Table 3, 18 to 24 hours): 0.04 µM

Compound: CCOCc1nc2c(N)nc3cc(-c4cccnc4)ccc3c2n1CC(C)(C)O [Analog 3, 1-(4-amino-2-ethoxymethyl-7-pyridin-3-yl-1H-imidazo[4,5-c]quinolin-1-yl)-2-methylpropan-2-ol, reference compound]
- minimal effective concentration ([1]; 18 to 24 hours): 0.12 µM
- minimal effective concentration ([1]; Table 3, 18 to 24 hours): 0.12 µM
- minimal effective concentration ([2]; 18 to 24 hours): 0.04 µM
- minimal effective concentration ([2]; Table 3, 18 to 24 hours): 0.04 µM

Compound: CC(C)(O)Cn1c(CCO)nc2c(N)nc3cc(-c4ccccc4)ccc3c21 [Example 2]
- minimal effective concentration ([1]; 18 to 24 hours): 3.33 µM
- Maximal Response (pg/mL) TNF [1]: 67 pg/mL
- minimal effective concentration ([2]; 18 to 24 hours): 0.37 µM
- Maximal Response (pg/mL) IFN [2]: 1274 pg/mL

Compound: CC(C)Cn1c(CCO)nc2c(N)nc3cc(-c4cccnc4)ccc3c21 [Example 3]
- minimal effective concentration ([1]; 18 to 24 hours): 3.33 µM
- Maximal Response (pg/mL) TNF [1]: 42 pg/mL
- minimal effective concentration ([2]; 18 to 24 hours): 0.37 µM
- Maximal Response (pg/mL) IFN [2]: 1180 pg/mL

The remaining lines, values ahead:

- melting point: > 300 °C
Compound: CS(=O)(=O)N1CCC(Cn2c(CO)nc3c(N)nc4cc(-c5cncc(CO)c5)ccc4c32)CC1 (as salt: HBr) (hydrate or solvate) [Example 44]

- melting point: > 300 °C
Compound: CC(C)C(=O)N1CCC(Cn2c(CO)nc3c(N)nc4cc(-c5cncc(CO)c5)ccc4c32)CC1 (as salt: HBr) [Example 45]

- melting point: > 300 °C
Compound: CC(C)NC(=O)N1CCC(Cn2c(CO)nc3c(N)nc4cc(-c5cncc(CO)c5)ccc4c32)CC1 (as salt: HBr) [Example 46]

- melting point: 260 to 264 °C
Compound: Nc1nc2cc(-c3cccc(C(=O)N4CCOCC4)c3)ccc2c2c1nc(CO)n2CC1CCCCC1 (as salt: HCl) (hydrate or solvate) [Example 50]
